Drawing on ChEMBL document CHEMBL1782056, “A novel series of piperazinyl-pyridine ureas as antagonists of the purinergic P2Y12 receptor” (Bioorg Med Chem Lett, 2011), this text covers solubility for five compounds.

Each structure is given as a SMILES string. Converted amounts (≈) assume the structure as drawn.

The data set can be described thus: physchem. To be noted: HBSS buffer, pH 6.5.
Turning to `CCOC(=O)c1cc(C#N)c(N2CCN(C(=O)Nc3ccccc3)CC2)nc1C(F)(F)F`, the solubility is < 0.1 µM. For `CCOC(=O)c1cnc(N2CCN(C(=O)Nc3ccccc3)CC2)c(C#N)c1` the value was 90 µM (≈ 34.1 µg/mL); for `CCOC(=O)c1cnc(N2CCN(C(=O)Nc3ccccc3)CC2)c(Cl)c1`, 40 µM (≈ 15.6 µg/mL); for `CCOC(=O)C1=C(C)NC(C)=C(C(=O)OC)C1c1cccc(Cl)c1Cl` (stereo not given) [FELODIPINE], 1 µM (≈ 0.384 µg/mL). To `C[C@]12CC[C@H]3[C@@H](CCC4=CC(=O)CC[C@@]43C)[C@@H]1CC[C@@H]2O` [TESTOSTERONE] belongs 75 µM (≈ 21.6 µg/mL).

The term solubility denotes how much of the substance goes into solution per volume.
